Entries after “also recorded” stand apart in the source; their conditions may differ.
Key:
[1] = system: gene transcripts in the brains of APP/PS1 mice; experiment: Microarray analysis of RNA expression in the brains of APP/PS1 mice; type: in vivo, mouse
[2] = system: IGF1R; experiment: QRT-PCR of IGF1R mRNA in IMR-32 cells; type: cell-based, human; details: 75 ppb and 150 ppb, 24 hours
Experimental: Human IMR-32 cells were seeded on gelatinized 6-well (6.5×10^5 cells/well) or 24-well (1.3×10^5 cells/well) plates. Cells were treated with control (0 ppb) or various compounds for 6 hours or 24 hours. Total RNA from these cells was isolated using Trizol (Invitrogen) according to the manufacturer's protocol, and then incubated with DNase I to remove any potential contaminated genomic DNA. Then RNA samples were subjected to real-time PCR analysis using the Applied-Bioscience's RT kit and predesigned Taqman probes (Invitrogen), as described previously (Lan et al EMBO J 2003). The mRNA levels of UCP1, UCP2, UCP3, SLC25A27 (UCP4), SLC25A14 (UCP5), PSEN1, Nicastrin, GSK3B, MAPK11-14, PPARG, APOE, RCAN1, RCAN1.1, G6PC, INSR, IGF1R and FOXO4 were measured. Three to six samples were analyzed in each treatment group. Data were normalized by Actin B (ACTB) or Glyceraldehyde Phosphate Dehydrogenase (GAPDH) mRNA levels in each sample and are presented as mean±SEM of 3-6 samples.
To examine whether or not Compound C can regulate INSR/IGF1R signaling in IMR-32 cells, QRT-PCR analysis was performed to measure INSR and IGF1R mRNA levels. […] Mean±SEM, n=4. The * refers to a p value <0.05 when compared to the control group (0 ppb).

[3] = system: phosphorylated-p38; experiment: Western blot of phosphorylated-p38 in APP/PS1 mouse brains; type: in vivo; details: APP/PS1 mice, Compound C diet vs control diet
Experimental: Male APPΔNLh/ΔNLh×PS1P246 L/246 L knock-in model mice of Alzheimer's disease (abbreviated APP/PS1) were genotyped using standard primers for human APP (Amyloid Precursor Protein) and human PS1 (PSEN1). These APP/PS1 mice starting at the age of 6 months, were fed either a control diet containing normal levels of selenium (0.3 ppm from plant and inorganic selenium salt sources) or an experimental diet containing Compound C (the control diet to which was added 1 ppm Se from Compound C) for 6 months. […]
Frozen hemispheres of control- and Compound C-treated APP/PS1 mice were weighed and homogenized in PBS buffer, and then subsequently extracted with RIPA buffer (Sigma) containing complete proteinase and phosphatase inhibitors (Fisher Scientific). Protein levels in the samples were determined by micro-BCA protein analysis according to the manufacturer's protocol. […] Positive signals on the membrane blots were detected using Amersham's enhanced chemiluminescence Western Blotting Prime Detection reagents (GE healthcare Lifescience, Pittsburgh, Pa.). Images of these luminescence signals on the membrane blots were captured using the LI-COR Odyssey Fc Image system (Lincoln, Nebr.). Protein band densities in Western blots were determined using NIH Image J software, and then normalized by Actb levels in each samples to obtain the protein levels.

[4] = APP/PS1 mouse brain, Compound C diet vs control diet

C[Se]C[C@H]1O[C@@H](n2cnc3c(N)ncnc32)C(O)C1O (stereo in doubt) [Compound C, 5′-deoxy-5′-methylselenoadenosine]
number of genes with regulated expression in the brains ([1]; APP/PS1 mice, fold change of more than 1.2): 2217 genes | Fold Change, Akap5 [1, 4]: 1.589 fold | Fold Change, Apbb1 [1, 4]: −1.293 fold | Fold Change, App [1, 4]: −1.22 fold | Fold Change, Bcl2 [1, 4]: 1.246 fold | Fold Change, Camk2a [1, 4]: −1.67 fold | Fold Change, Cnr1 [1, 4]: −1.492 fold | Fold Change, Ddx5 [1, 4]: 1.26 fold | Fold Change, Dlx5 [1, 4]: 2.09 fold | Fold Change, Drd1 [1, 4]: 4.22 fold | Fold Change, Foxp2 [1, 4]: 2.52 fold | Fold Change, Gabra1 [1, 4]: −1.407 fold | Fold Change, Gabra2 [1, 4]: 1.275 fold | Fold Change, Gabrg1 [1, 4]: 1.375 fold | Fold Change, Gad2 [1, 4]: 1.69 fold | Fold Change, Gpr6 [1, 4]: 9.07 fold | Fold Change, Gpr88 [1, 4]: 6.47 fold | Fold Change, Grm4 [1, 4]: 1.418 fold | Fold Change, Htr2c [1, 4]: 1.797 fold | Fold Change, Isl1 [1, 4]: 11.32 fold | Fold Change, Mapk8 [1, 4]: −1.289 fold | Fold Change, Mapt [1, 4]: −1.21 fold | Fold Change, Meis2 [1, 4]: 2.04 fold | Fold Change, Nrxn1 [1, 4]: −1.444 fold | Fold Change, Pak1 [1, 4]: −1.201 fold | Fold Change, Pde10a [1, 4]: 2.91 fold | Fold Change, Penk [1, 4]: 4.068 fold | Fold Change, Prdx1 [1, 4]: 1.272 fold | Fold Change, Prkacb [1, 4]: −1.396 fold | Fold Change, Prkar2b [1, 4]: 1.439 fold | Fold Change, Prkcd [1, 4]: 1.813 fold | Fold Change, Prnp [1, 4]: −1.256 fold | Fold Change, Rarb [1, 4]: 4.03 fold | Fold Change, Rims1 [1, 4]: −1.459 fold | Fold Change, Scarb1 [1, 4]: 1.56 fold | Fold Change, Scp2 [1, 4]: 1.204 fold | Fold Change, Sez6 [1, 4]: 1.33 fold | Fold Change, Sod1 [1, 4]: 1.274 fold | Fold Change, Sorl1 [1, 4]: −1.41 fold | Fold Change, Sox2 [1, 4]: 1.274 fold | Fold Change, Tac1 [1, 4]: 3.36 fold | Fold Change, ZIC1 [1, 4]: 3.25 fold | Fold Change, Zic3 [1, 4]: 2.28 fold | Fold Change, Zic4 [1, 4]: 1.75 fold | Fold Change, Zic5 [1, 4]: 1.53 fold | Foxo 1, 3 and 4 mRNA levels [1, 4]: no significant change | IGF1R mRNA expression levels [2]: downregulated | phosphorylated-p38 protein levels in the brains [3]: reduced; also recorded: decreased
